{"source": "patent US20080312277A1", "about": "“Gpr41 and Modulators Thereof for the Treatment of Insulin-Related Disorders” (priority 2004, published 2008)", "key": {"male C57b1/6 mice": {"tested_on": "male C57b1/6 mice", "test": "Oral glucose tolerance test (oGTT)", "assay_type": "in vivo", "conditions": "p.o. 30 min before oral dextrose 3 g/kg, FIG. 8", "experimental": "For the oGTT, male C57b1/6 mice were fasted for about 18 hours and randomly grouped to receive the compounds indicated in FIG. 8 at the indicated doses, or vehicle (PET which contains 80% PEG, 10% Tween80, and 10% Ethanol). The indicated compound(s) were delivered orally via a gavage needle (p.o. volume at 100 μl). Thirty minutes after administration of the compound(s) or vehicle, mice were administered orally with dextrose at 3 g/kg dose. Levels of blood glucose were determined at several time points using Glucometer Elite XL (Bayer)."}, "GPR41": {"target": "T1, GPR41 (Homo sapiens, UniProt O14843)", "T1 sequence (O14843 1-346)": "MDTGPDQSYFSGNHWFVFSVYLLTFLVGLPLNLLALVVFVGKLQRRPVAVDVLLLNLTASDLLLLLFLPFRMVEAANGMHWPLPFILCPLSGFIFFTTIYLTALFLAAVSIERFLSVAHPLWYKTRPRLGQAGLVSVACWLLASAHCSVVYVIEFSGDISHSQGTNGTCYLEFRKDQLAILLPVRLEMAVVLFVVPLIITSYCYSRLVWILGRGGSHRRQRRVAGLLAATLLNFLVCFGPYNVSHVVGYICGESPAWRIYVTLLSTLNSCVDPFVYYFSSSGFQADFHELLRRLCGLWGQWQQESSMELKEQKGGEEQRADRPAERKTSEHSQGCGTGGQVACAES", "conditions": "Brown et al., J. Biol. Chem. 278:11312-11319 (2003); cited from earlier work"}}}
{"compound": "CC1=C(C(=O)Nc2ccccc2C)C(c2ccoc2)C2=C(CCCC2=O)N1", "note": "(stereo not drawn) [Compound 4, 4-Furan-3-yl-2-methyl-5-oxo-1,4,5,6,7,8-hexahydro-quinoline-3-carboxylic acid o-tolylamide]", "values": [{"measurement": "effect on the glycemic lowering effect of Compound B111 in the oGTT (plasma glucose)", "setting": "male C57b1/6 mice; used in conjunction with Compound B111", "result": "reversed the glycemic lowering effect of Compound B111"}]}
{"compound": "CC(C)c1noc(C2CCN(c3ncnc(Nc4ccc(S(C)(=O)=O)cc4F)c3[N+](=O)[O-])CC2)n1", "note": "[Compound B111, (2-Fluoro-4-methanesulfonyl-phenyl)-{6-[4-(3-isopropyl-[1,2,4]oxadiazol-5-yl)-piperidin-1-yl]-5-nitro-pyrimidin-4-yl}-amine]", "values": [{"measurement": "glycemic effect in the oGTT", "setting": "male C57b1/6 mice; used alone", "result": "glycemic lowering effect"}]}
{"compound": "CCC(=O)O", "note": "[propionate]", "values": [{"measurement": "activation of GPR41", "setting": "GPR41", "result": "activated"}]}
